ChEMBL document CHEMBL3885861, “Open TG-GATES”

Species on record: Rattus norvegicus
Experiment: Open TG-GATES - Regimen: Daily Repeat
Type: toxicity, organism-based, Sprague-Dawley
Design: regimen Daily Repeat, gender Male, age 6 weeks
Settings: in vivo, po, route gavage; for APTT / Bas / Eos / Fbg / Hb / Ht / Lym / MCH / MCV / Mono / Neu / PT / Plat / RBC / Ret / WBC: tissue Blood; for KIDNEY_L / KIDNEY_R / KIDNEY_TOTAL: tissue Kidney; for LIVER: tissue Liver; for ALP / ALT / AST / BUN / CRE / Ca / Cl / DBIL / GLC / IP / K / LDH / Na / PL / RALB / TBIL / TP / gamma-GTP: tissue Plasma
[1] = 0 mg/kg, 72 h, dose level Control, time 3 day
[2] = 0 mg/kg, […], dose level Control, time 7 day
[3] = 0 mg/kg, […], dose level Control, time 14 day
[4] = 0 mg/kg, […], dose level Control, time 28 day
[5] = 30 mg/kg, 72 h, dose level Low, time 3 day
[6] = 30 mg/kg, […], dose level Low, time 7 day
[7] = 30 mg/kg, […], dose level Low, time 14 day
[8] = 30 mg/kg, […], dose level Low, time 28 day
[9] = 100 mg/kg, 72 h, dose level Middle, time 3 day

## NC(=O)N1c2ccccc2C=Cc2ccccc21 [CARBAMAZEPINE]
[1]
  TERMINAL_BW: 235.3 g
  APTT: 19.1 s
  Bas: 0%
  Eos: 1%
  Fbg: 213.8 mg/dL
  Hb: 13.6 g/dL
  Ht: 40.2%
  Lym: 79%
  MCH: 21 pg
  MCV: 61.9 fL
  Mono: 3.6%
  Neu: 15.6%
  PT: 12.3 s
  Plat: 123.2 x10_4/uL
  RBC: 648.8 x10_4/ul
  Ret: 4.9%
  WBC: 95.6 x10_2/uL
  KIDNEY_L: 1.1 g
  KIDNEY_R: 1.1 g
  KIDNEY_TOTAL: 2.2 g
  LIVER: 11.5 g
  ALP: 1022.4 IU/L
  ALT: 41.4 IU/L
  AST: 77 IU/L
  BUN: 15.6 mg/dL
  CRE: 0.4 mg/dL
  Ca: 10.7 mg/dL
  Cl: 102.4 meq/L
  DBIL: 0.08 mg/dL
  GLC: 213.8 mg/dL
  IP: 7.8 mg/dL
  K: 3.8 meq/L
  LDH: 178.8 IU/L
  Na: 140.4 meq/L
  PL: 144 mg/dL
  RALB: 3.3 g/dL
  TBIL: 0.1 mg/dL
  TP: 5.6 g/dL
  gamma-GTP: 0.8 IU/L
[2]
  TERMINAL_BW: 265.1 g
  APTT: 21.2 s
  Bas: 0%
  Eos: 1%
  Fbg: 223 mg/dL
  Hb: 14 g/dL
  Ht: 40.8%
  Lym: 81%
  MCH: 20.8 pg
  MCV: 60.5 fL
  Mono: 2.4%
  Neu: 14.4%
  PT: 11.9 s
  Plat: 122.6 x10_4/uL
  RBC: 674.4 x10_4/ul
  Ret: 3.8%
  WBC: 90.9 x10_2/uL
  KIDNEY_L: 1.1 g
  KIDNEY_R: 1.1 g
  KIDNEY_TOTAL: 2.3 g
  LIVER: 12.2 g
  ALP: 993 IU/L
  ALT: 37.6 IU/L
  AST: 74 IU/L
  BUN: 16.8 mg/dL
  CRE: 0.4 mg/dL
  Ca: 10.5 mg/dL
  Cl: 102.4 meq/L
  DBIL: 0.1 mg/dL
  GLC: 218.2 mg/dL
  IP: 7.5 mg/dL
  K: 3.8 meq/L
  LDH: 218.6 IU/L
  Na: 140.6 meq/L
  PL: 158.6 mg/dL
  RALB: 3.5 g/dL
  TBIL: 0.2 mg/dL
  TP: 5.8 g/dL
  gamma-GTP: 1 IU/L
[3]
  TERMINAL_BW: 321.1 g
  APTT: 22 s
  Bas: 0%
  Eos: 1%
  Fbg: 219 mg/dL
  Hb: 14.5 g/dL
  Ht: 41.7%
  Lym: 82.2%
  MCH: 20.7 pg
  MCV: 59.6 fL
  Mono: 2.6%
  Neu: 13.2%
  PT: 12.2 s
  Plat: 129 x10_4/uL
  RBC: 700.4 x10_4/ul
  Ret: 4.2%
  WBC: 120.8 x10_2/uL
  KIDNEY_L: 1.3 g
  KIDNEY_R: 1.2 g
  KIDNEY_TOTAL: 2.5 g
  LIVER: 13.6 g
  ALP: 817.2 IU/L
  ALT: 36 IU/L
  AST: 64 IU/L
  BUN: 16.7 mg/dL
  CRE: 0.5 mg/dL
  Ca: 10.7 mg/dL
  Cl: 102.4 meq/L
  DBIL: 0.1 mg/dL
  GLC: 207.4 mg/dL
  IP: 7 mg/dL
  K: 3.8 meq/L
  LDH: 204.6 IU/L
  Na: 141.6 meq/L
  PL: 151.4 mg/dL
  RALB: 3.5 g/dL
  TBIL: 0.2 mg/dL
  TP: 5.9 g/dL
  gamma-GTP: 1 IU/L
[4]
  TERMINAL_BW: 388.8 g
  APTT: 20.4 s
  Bas: 0%
  Eos: 1.2%
  Fbg: 212.8 mg/dL
  Hb: 15.3 g/dL
  Ht: 43.3%
  Lym: 81%
  MCH: 20.1 pg
  MCV: 56.8 fL
  Mono: 2.4%
  Neu: 14.6%
  PT: 12.2 s
  Plat: 111.8 x10_4/uL
  RBC: 762 x10_4/ul
  Ret: 2.4%
  WBC: 105.6 x10_2/uL
  KIDNEY_L: 1.4 g
  KIDNEY_R: 1.4 g
  KIDNEY_TOTAL: 2.8 g
  LIVER: 15.2 g
  ALP: 739.6 IU/L
  ALT: 35.4 IU/L
  AST: 68.2 IU/L
  BUN: 18 mg/dL
  CRE: 0.5 mg/dL
  Ca: 10.3 mg/dL
  Cl: 102 meq/L
  DBIL: 0.1 mg/dL
  GLC: 224.8 mg/dL
  IP: 6.7 mg/dL
  K: 3.4 meq/L
  LDH: 182.6 IU/L
  Na: 141 meq/L
  PL: 147.8 mg/dL
  RALB: 3.4 g/dL
  TBIL: 0.2 mg/dL
  TP: 6.2 g/dL
  gamma-GTP: 1.2 IU/L
[5]
  TERMINAL_BW: 237.7 g
  APTT: 19.7 s
  Bas: 0%
  Eos: 1%
  Fbg: 213 mg/dL
  Hb: 13.4 g/dL
  Ht: 39.4%
  Lym: 80.4%
  MCH: 21 pg
  MCV: 62 fL
  Mono: 3.4%
  Neu: 14%
  PT: 12.2 s
  Plat: 120.4 x10_4/uL
  RBC: 636 x10_4/ul
  Ret: 5.2%
  WBC: 98.2 x10_2/uL
  KIDNEY_L: 1 g
  KIDNEY_R: 1 g
  KIDNEY_TOTAL: 2 g
  LIVER: 11.7 g
  ALP: 1007.4 IU/L
  ALT: 35.6 IU/L
  AST: 66.6 IU/L
  BUN: 14.8 mg/dL
  CRE: 0.4 mg/dL
  Ca: 10.8 mg/dL
  Cl: 103.2 meq/L
  DBIL: 0.094 mg/dL
  GLC: 209.6 mg/dL
  IP: 7.6 mg/dL
  K: 3.5 meq/L
  LDH: 197.2 IU/L
  Na: 140 meq/L
  PL: 148.8 mg/dL
  RALB: 3.3 g/dL
  TBIL: 0.1 mg/dL
  TP: 5.6 g/dL
  gamma-GTP: 1.2 IU/L
[6]
  TERMINAL_BW: 270.1 g
  APTT: 21.4 s
  Bas: 0%
  Eos: 0.8%
  Fbg: 214.2 mg/dL
  Hb: 13.7 g/dL
  Ht: 40.2%
  Lym: 83.2%
  MCH: 20.8 pg
  MCV: 61.1 fL
  Mono: 2.4%
  Neu: 12.6%
  PT: 12 s
  Plat: 127.1 x10_4/uL
  RBC: 658.2 x10_4/ul
  Ret: 4.4%
  WBC: 103.7 x10_2/uL
  KIDNEY_L: 1.1 g
  KIDNEY_R: 1.1 g
  KIDNEY_TOTAL: 2.2 g
  LIVER: 12.5 g
  ALP: 876.6 IU/L
  ALT: 37 IU/L
  AST: 70.6 IU/L
  BUN: 16.2 mg/dL
  CRE: 0.4 mg/dL
  Ca: 10.4 mg/dL
  Cl: 100.8 meq/L
  DBIL: 0.088 mg/dL
  GLC: 233.6 mg/dL
  IP: 8.2 mg/dL
  K: 3.7 meq/L
  LDH: 187.4 IU/L
  Na: 139.4 meq/L
  PL: 150.8 mg/dL
  RALB: 3.4 g/dL
  TBIL: 0.1 mg/dL
  TP: 5.7 g/dL
  gamma-GTP: 1 IU/L
[7]
  TERMINAL_BW: 327.6 g
  APTT: 20.7 s
  Bas: 0%
  Eos: 1%
  Fbg: 206.2 mg/dL
  Hb: 14.3 g/dL
  Ht: 41.1%
  Lym: 83%
  MCH: 20.4 pg
  MCV: 58.8 fL
  Mono: 2.4%
  Neu: 12.6%
  PT: 12.2 s
  Plat: 119.9 x10_4/uL
  RBC: 700.8 x10_4/ul
  Ret: 4%
  WBC: 100 x10_2/uL
  KIDNEY_L: 1.3 g
  KIDNEY_R: 1.3 g
  KIDNEY_TOTAL: 2.6 g
  LIVER: 15.3 g
  ALP: 890.2 IU/L
  ALT: 30.8 IU/L
  AST: 60.8 IU/L
  BUN: 16.9 mg/dL
  CRE: 0.5 mg/dL
  Ca: 10.7 mg/dL
  Cl: 101.2 meq/L
  DBIL: 0.1 mg/dL
  GLC: 219.8 mg/dL
  IP: 7.1 mg/dL
  K: 3.8 meq/L
  LDH: 208.4 IU/L
  Na: 140.6 meq/L
  PL: 160.2 mg/dL
  RALB: 3.4 g/dL
  TBIL: 0.2 mg/dL
  TP: 5.9 g/dL
  gamma-GTP: 0.8 IU/L
[8]
  TERMINAL_BW: 366.9 g
  APTT: 21 s
  Bas: 0%
  Eos: 0.8%
  Fbg: 197.8 mg/dL
  Hb: 15.9 g/dL
  Ht: 45.7%
  Lym: 83%
  MCH: 19.5 pg
  MCV: 55.9 fL
  Mono: 2.2%
  Neu: 12.6%
  PT: 12.3 s
  Plat: 108.1 x10_4/uL
  RBC: 820.4 x10_4/ul
  Ret: 2.2%
  WBC: 127.9 x10_2/uL
  KIDNEY_L: 1.3 g
  KIDNEY_R: 1.3 g
  KIDNEY_TOTAL: 2.6 g
  LIVER: 14.4 g
  ALP: 673 IU/L
  ALT: 36.6 IU/L
  AST: 68.4 IU/L
  BUN: 17.8 mg/dL
  CRE: 0.5 mg/dL
  Ca: 10.3 mg/dL
  Cl: 101.8 meq/L
  DBIL: 0.098 mg/dL
  GLC: 224.4 mg/dL
  IP: 6.7 mg/dL
  K: 3.4 meq/L
  LDH: 150.8 IU/L
  Na: 141.4 meq/L
  PL: 148 mg/dL
  RALB: 3.5 g/dL
  TBIL: 0.1 mg/dL
  TP: 6.2 g/dL
  gamma-GTP: 1 IU/L
[9]
  TERMINAL_BW: 234.6 g
  APTT: 20.1 s
  Bas: 0%
